Assay type in all cases: functional, cell-based
The target in one test is Adenosine receptor A2a (Homo sapiens, UniProt P29274). Description: Agonist activity at human A2A receptor expressed in Flp-In-CHO cells assessed as cAMP accumulation incubated for 30 mins by LANCE cAMP assay.
The target of a further test is T1, Adenosine receptor A2b (Homo sapiens, UniProt P29275).
T1 sequence (P29275 whole entry): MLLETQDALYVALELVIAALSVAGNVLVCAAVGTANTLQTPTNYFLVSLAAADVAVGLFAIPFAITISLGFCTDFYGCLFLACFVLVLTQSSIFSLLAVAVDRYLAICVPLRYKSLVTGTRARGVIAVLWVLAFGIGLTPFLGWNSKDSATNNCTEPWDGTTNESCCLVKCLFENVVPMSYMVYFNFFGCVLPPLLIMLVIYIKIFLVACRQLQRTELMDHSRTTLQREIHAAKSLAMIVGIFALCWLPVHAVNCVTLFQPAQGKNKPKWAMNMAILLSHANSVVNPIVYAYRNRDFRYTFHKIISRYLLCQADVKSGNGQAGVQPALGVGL
Description: Agonist activity at human A2B receptor expressed in Flp-In-CHO cells assessed as cAMP accumulation incubated for 10 mins in presence of forskolin by LANCE cAMP assay. A general note: Cyclic AMP is a second messenger, typically raised through Gs and lowered through Gi signalling.

The target of test [1] is T2, Adenosine receptor A1 (Homo sapiens, UniProt P30542).
T2 sequence (P30542 whole entry): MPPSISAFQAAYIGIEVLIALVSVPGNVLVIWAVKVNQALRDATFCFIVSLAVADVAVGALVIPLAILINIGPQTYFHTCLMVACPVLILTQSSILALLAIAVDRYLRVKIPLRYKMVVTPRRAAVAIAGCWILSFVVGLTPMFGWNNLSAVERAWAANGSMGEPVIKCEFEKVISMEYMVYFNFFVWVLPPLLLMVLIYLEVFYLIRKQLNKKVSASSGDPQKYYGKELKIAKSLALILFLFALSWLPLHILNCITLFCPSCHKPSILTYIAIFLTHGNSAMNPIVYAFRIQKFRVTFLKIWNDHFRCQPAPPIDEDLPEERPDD
Briefly: Agonist activity at human A1 receptor expressed in Flp-In-CHO cells assessed as stimulation of calcium mobilization by calcium mobilization assay. For orientation: Calcium flux is commonly read through the fluorescence of an indicator in the cells.

Test [2] has as its target T2, Adenosine receptor A1. Description: Agonist activity at human A1 receptor expressed in Flp-In-CHO cells assessed as inhibition of forskolin stimulated cAMP accumulation incubated for 30 mins by LANCE cAMP assay.

Some results are limits rather than exact numbers.

Adenosine receptor A2a, sequence (P29274 whole entry): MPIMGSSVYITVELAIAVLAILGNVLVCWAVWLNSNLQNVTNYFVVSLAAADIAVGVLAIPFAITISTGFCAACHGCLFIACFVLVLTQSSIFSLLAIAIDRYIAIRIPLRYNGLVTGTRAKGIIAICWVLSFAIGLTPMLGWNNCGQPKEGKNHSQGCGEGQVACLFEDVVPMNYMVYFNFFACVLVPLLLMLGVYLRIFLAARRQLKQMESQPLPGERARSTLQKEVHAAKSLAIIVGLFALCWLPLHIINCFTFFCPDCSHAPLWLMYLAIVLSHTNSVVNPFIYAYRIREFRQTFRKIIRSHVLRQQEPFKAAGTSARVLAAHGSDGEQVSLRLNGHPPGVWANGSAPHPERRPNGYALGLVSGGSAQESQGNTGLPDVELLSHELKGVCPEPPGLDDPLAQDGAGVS

For `Nc1sc(-c2ccc(C(=O)NCCCCCCNc3ncnc4c3ncn4[C@@H]3O[C@H](CO)[C@@H](O)[C@H]3O)cc2)c(-c2cccc(C(F)(F)F)c2)c1C(=O)c1ccccc1`, at Adenosine receptor A2a, the EC50 is 0.389 µM.

`Nc1sc(-c2ccc(C(=O)NCCc3ccc(CCNc4ncnc5c4ncn5[C@@H]4O[C@H](CO)[C@@H](O)[C@H]4O)cc3)cc2)c(-c2cccc(C(F)(F)F)c2)c1C(=O)c1ccccc1`: the concentration for a half-maximal effect (EC50) is 0.0525 µM on Adenosine receptor A2b, 0.363 µM at Adenosine receptor A2a, more than 10 µM on Adenosine receptor A1 [1] and 0.55 µM at Adenosine receptor A1 [2].

With `Nc1sc(-c2ccc(C(=O)NCCC#Cc3ccc(Nc4ncnc5c4ncn5[C@@H]4O[C@H](CO)[C@@H](O)[C@H]4O)cc3)cc2)c(-c2cccc(C(F)(F)F)c2)c1C(=O)c1ccccc1`, the EC50 on Adenosine receptor A2a is 0.741 µM.

One may read the EC50 as the concentration giving half of the maximal effect.

The values are drawn from ChEMBL document CHEMBL5120905, “Examining the Role of the Linker in Bitopic N6-Substituted Adenosine Derivatives Acting as Biased Adenosine A1 Receptor Agonists” (J Med Chem, 2022).
